According to article PMC4612330 (Cancer Chemotherapy and Pharmacology, 2015):
Where “and” joins values, the source holds several entries; their conditions need not be identical. Equal values may be shown once. Read-outs that look alike come from different tables or passages of the source. One block for each compound: values may come before it.

Key:
[1] = phase 1 plasma pharmacokinetics, noncompartmental; settings: for AUCt: carboplatin AUC 6 mg/mL min IV day 3, last sampling 21 h
Procedure: Six cycles of therapy were planned.
Plasma samples were stored at −20 °C until shipment to AbbVie. […] Plasma concentrations of carboplatin were determined using an inductively coupled plasma mass spectrometry. Standard pharmacokinetic parameters were determined using non-compartmental methods.

[2] = system: Japanese patients with NSCLC; test: phase 1 anti-tumor response (RECIST version 1.1) of veliparib plus carboplatin and paclitaxel; type: in vivo, human
Procedure: A CT scan of the full chest and abdomen with images of the liver and adrenal glands was performed for all tumor assessments at screening (within 3 weeks prior to registration) and at the end of every 2 cycles (6 weeks). Tumor assessments were performed within 7 days of the scheduled date.

lung cancer tumor models = settings: preclinical lung cancer tumor models; cited from earlier work
[3] = system: patients with advanced or metastatic solid tumors; settings: cited from earlier work
[4] = system: patients with triple-negative breast cancer; settings: with carboplatin and paclitaxel; cited from earlier work
[5] = system: patients with newly diagnosed ovarian cancer; parameters: method as in GOG 9923; settings: with carboplatin, paclitaxel, and bevacizumab; study ongoing; ref GOG 9923; cited from earlier work
[6] = system: patients with advanced or metastatic NSCLC; settings: cited from earlier work
[7] = system: patients with triple-negative breast cancer; settings: veliparib and carboplatin plus standard neoadjuvant therapy; cited from earlier work
[8] = parameters: method as in printed; settings: ref not given; cited from earlier work
[9] = parameters: method as in printed; settings: ref not given; cited from earlier work; remark: listed apart in the source
[10] = in humans; cited from earlier work
[11] = system: major cytochrome P450 enzymes; settings: at therapeutic doses; cited from earlier work
major drug transporters = settings: at therapeutic doses; cited from earlier work
[12] = system: PARP activity in tumor biopsies; settings: cited from earlier work; for PARP inhibition in tumor biopsies, average: 50 mg
PARP activity in PBMCs = settings: 50 mg, maintained for 24 h in 3 subjects; cited from earlier work
[13] = carboplatin AUC 6 mg/mL min IV day 3, all patients N = 12, mean ± SD
[14] = carboplatin AUC 6 mg/mL min IV day 3, with veliparib 40 mg BID n = 3, mean ± SD
[15] = carboplatin AUC 6 mg/mL min IV day 3, with veliparib 80 mg BID n = 3, mean ± SD
[16] = carboplatin AUC 6 mg/mL min IV day 3, with veliparib 120 mg (BID) n = 6, mean ± SD
[17] = plus carboplatin and paclitaxel

SMILES: N.N.O=C([O-])C1(C(=O)[O-])CCC1.[Pt+2] [Carboplatin, reference compound]
AUCt ([1]; all patients N = 12, mean ± SD): 92500 ± 6540 ng·h/mL | AUCt ([1]; with veliparib 40 mg BID n = 3, mean ± SD): 94100 ± 9910 ng·h/mL | AUCt ([1]; with veliparib 80 mg BID n = 3, mean ± SD): 95100 ± 5830 ng·h/mL | AUCt ([1]; with veliparib 120 mg (BID) n = 6, mean ± SD): 90300 ± 5450 ng·h/mL | AUC∞ [1, 13]: 103000 ± 7670 ng·h/mL | C max [1, 13]: 22600 ± 2250 ng/mL | T max [1, 13]: 1.0 ± 0.0 h | AUC∞ [1, 14]: 105000 ± 12300 ng·h/mL | C max [1, 14]: 22300 ± 2370 ng/mL | T max [1, 14]: 1.0 ± 0.0 h | AUC∞ [1, 15]: 105000 ± 7140 ng·h/mL | C max [1, 15]: 24300 ± 1160 ng/mL | T max [1, 15]: 1.0 ± 0.0 h | AUC∞ [1, 16]: 100000 ± 5730 ng·h/mL | C max [1, 16]: 22000 ± 2450 ng/mL | T max [1, 16]: 1.0 ± 0.0 h | pharmacokinetics when co-administered with 40, 80, or 120 mg veliparib BID ([1]; day 3 of cycle 1): comparable

AUC0–8/dose ([1]; human, in vivo): 31.4 ± 6.69 (ng h/mL)/mg | AUC∞/dose ([1]; human, in vivo): 44.2 ± 11.3 (ng h/mL)/mg | C max/dose ([1]; human, in vivo): 7.06 ± 1.29 (ng/mL)/mg | AUC0–8/dose ([1]; human, in vivo, 40 mg): 32.2 ± 9.24 (ng h/mL)/mg | AUC∞/dose ([1]; human, in vivo, 40 mg): 46.0 ± 16.8 (ng h/mL)/mg | C max/dose ([1]; human, in vivo, 40 mg): 8.18 ± 1.19 (ng/mL)/mg | AUC(0-t) ([1]; human, in vivo, 40 mg, AUC0–8): 1290 ± 370 ng·h/mL | AUC(0-inf) ([1]; human, in vivo, 40 mg, AUC∞): 1840 ± 671 ng·h/mL | Cmax ([1]; human, in vivo, 40 mg, C max): 327 ± 47.7 ng/mL | Tmax ([1]; human, in vivo, 40 mg, T max): 2.5 ± 1.3 h | AUC0–8/dose ([1]; human, in vivo, 80 mg): 26.7 ± 2.46 (ng h/mL)/mg | AUC∞/dose ([1]; human, in vivo, 80 mg): 35.0 ± 3.33 (ng h/mL)/mg | C max/dose ([1]; human, in vivo, 80 mg): 6.01 ± 0.35 (ng/mL)/mg | AUC(0-t) ([1]; human, in vivo, 80 mg, AUC0–8): 2140 ± 197 ng·h/mL | AUC(0-inf) ([1]; human, in vivo, 80 mg, AUC∞): 2800 ± 266 ng·h/mL | Cmax ([1]; human, in vivo, 80 mg, C max): 481 ± 27.8 ng/mL | Tmax ([1]; human, in vivo, 80 mg, T max): 3.3 ± 1.2 h | AUC0–8/dose ([1]; human, in vivo, 120 mg): 33.3 ± 6.34 (ng h/mL)/mg | AUC∞/dose ([1]; human, in vivo, 120 mg): 48.0 ± 9.72 (ng h/mL)/mg | C max/dose ([1]; human, in vivo, 120 mg): 7.03 ± 1.27 (ng/mL)/mg | dose proportionality of Cmax and AUC ([1]; human, in vivo, 120 mg): approximately dose proportional | AUC(0-t) ([1]; human, in vivo, 120 mg, AUC0–8): 3990 ± 796 ng·h/mL | AUC(0-inf) ([1]; human, in vivo, 120 mg, AUC∞): 5760 ± 1170 ng·h/mL | Cmax ([1]; human, in vivo, 120 mg, C max): 844 ± 152 ng/mL | Tmax ([1]; human, in vivo, 120 mg, T max): 3 ± 1.1 h | pharmacokinetic profile, Japanese versus Western populations ([1]; in vivo): generally comparable
SMILES: C[C@]1(c2nc3c(C(N)=O)cccc3[nH]2)CCCN1 [Veliparib, 2-[(R)-2-methylpyrrolidin-2-yl]-1H-benzimidazole-4-carboxamide]
patients who developed progressive disease (PD) ([2]; 80 mg BID): One | median PFS ([2]; all dose levels): 92 days | patients who achieved PR at the first CT scan ([2]; all dose levels): 3 | patients who achieved a PR ([2]; all dose levels, 11 patients): Six | overall response rate ([2]; efficacy population, 11 patients): 55% | effect on platinum-based chemotherapy (lung cancer tumor models): potentiates the effect of platinum-based chemotherapy | maximum dose of veliparib ([3]; for 7 days in addition to standard doses of carboplatin and paclitaxel): 120 mg BID | complete response (CR) ([3]; phase 1 dose-escalation study): 3% | complete response (CR), patients ([3]; phase 1 dose-escalation study): 2/68 | partial response (PR) ([3]; phase 1 dose-escalation study): 16% | partial response (PR), patients ([3]; phase 1 dose-escalation study): 11/68 | stable disease ([3]; phase 1 dose-escalation study): 51% | stable disease, patients ([3]; phase 1 dose-escalation study): 35/68 | RPTD ([3]; with standard doses of carboplatin and paclitaxel): 100 mg BID | dose cleared [4]: up to 200 mg BID | dose cleared [5]: ≥ 150 mg BID | Overall survival (OS) [6, 17]: 11.1 months | median progression-free survival (PFS) [6, 17]: 5.8 months | HR (PFS) ([6]; veliparib versus placebo, each plus carboplatin and paclitaxel): 0.71 | estimated pathologic complete response rate [7]: 52% | solubility [8]: highly soluble | permeability [9]: permeable | elimination [10]: primarily eliminated by renal excretion | inhibition of major cytochrome P450 enzymes [11]: not an inhibitor | inhibition of major drug transporters (major drug transporters): not an inhibitor | PARP inhibition in tumor biopsies, average ([12]; 3–6 h after dosing (N = 3)): 75% | PARP inhibition in tumor biopsies, average ([12]; 24 h after dosing (N = 3)): 74% | inhibition of PARP activity in tumor biopsies ([12]; single dose of 25 mg, 3–6 h after dosing, 3 subjects (one value each)): 92% and 95% and 100% | inhibition of PARP activity in PBMCs (PARP activity in PBMCs): Complete inhibition

T max ([1]; human, in vivo, iv): 3.0 ± 0.0 h | AUC(0-t) ([1]; human, in vivo, iv, 200 mg/m2, AUCt): 24800 ± 2860 ng·h/mL | AUC(0-inf) ([1]; human, in vivo, iv, 200 mg/m2, AUC∞): 25500 ± 2890 ng·h/mL | Cmax ([1]; human, in vivo, iv, 200 mg/m2, C max): 6840 ± 1200 ng/mL | Tmax ([1]; human, in vivo, iv, 200 mg/m2, T max): 2.9 ± 0.3 h | Tmax ([1]; human, in vivo, iv, T max): 3.1 ± 0.2 h
SMILES: CC(=O)O[C@H]1C(=O)[C@@]2(C)[C@H]([C@H](OC(=O)c3ccccc3)[C@]3(O)C[C@H](OC(=O)[C@H](O)[C@@H](NC(=O)c4ccccc4)c4ccccc4)C(C)=C1C3(C)C)[C@]1(OC(C)=O)CO[C@@H]1C[C@@H]2O [Paclitaxel, reference compound]
